Assay [1] concerns the target Serine/threonine-protein kinase PAK 3 (Homo sapiens, UniProt O75914). Nature of the assay: Inhibition of PAK3-mediated MEK1 phosphorylation at Ser298 in human EBC1 cells after 2 hrs by HTRF assay. The format is cell-based. The conditions noted are these: pooled result: one value given for 3 cell lines, strains, targets or settings. In general terms: In TR-FRET formats the signal depends on donor and acceptor labels being close together.

Assay [2] has as its target Serine/threonine-protein kinase PAK 1 (Homo sapiens, UniProt Q13153). Nature of the assay: Inhibition of human recombinant GST-tagged PAK1 kinase domain-mediated 5FAM-RRRLSFAEPG phosphorylation expressed in Sf9 cells preincubated for 10 mins prior to substrate addition measured after 30 mins by microfluidic mobility shift assay.

Sequence of Serine/threonine-protein kinase PAK 3 (O75914 whole entry): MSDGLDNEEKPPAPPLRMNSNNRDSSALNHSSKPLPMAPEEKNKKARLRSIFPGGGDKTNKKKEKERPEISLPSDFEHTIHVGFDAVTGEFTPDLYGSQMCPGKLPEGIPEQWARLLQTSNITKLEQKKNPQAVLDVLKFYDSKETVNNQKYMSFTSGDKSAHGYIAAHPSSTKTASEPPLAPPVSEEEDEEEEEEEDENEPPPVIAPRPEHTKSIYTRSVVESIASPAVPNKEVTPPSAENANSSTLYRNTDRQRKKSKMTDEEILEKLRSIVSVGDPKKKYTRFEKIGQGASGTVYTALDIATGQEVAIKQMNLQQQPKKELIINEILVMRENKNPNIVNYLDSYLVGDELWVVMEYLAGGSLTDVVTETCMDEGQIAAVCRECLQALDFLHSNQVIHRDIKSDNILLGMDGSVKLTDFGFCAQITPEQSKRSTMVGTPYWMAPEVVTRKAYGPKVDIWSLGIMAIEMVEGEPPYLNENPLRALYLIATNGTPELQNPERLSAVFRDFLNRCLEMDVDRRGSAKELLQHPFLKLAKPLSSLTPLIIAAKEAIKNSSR
Sequence of Serine/threonine-protein kinase PAK 1 (Q13153 whole entry, the tested form may be a part): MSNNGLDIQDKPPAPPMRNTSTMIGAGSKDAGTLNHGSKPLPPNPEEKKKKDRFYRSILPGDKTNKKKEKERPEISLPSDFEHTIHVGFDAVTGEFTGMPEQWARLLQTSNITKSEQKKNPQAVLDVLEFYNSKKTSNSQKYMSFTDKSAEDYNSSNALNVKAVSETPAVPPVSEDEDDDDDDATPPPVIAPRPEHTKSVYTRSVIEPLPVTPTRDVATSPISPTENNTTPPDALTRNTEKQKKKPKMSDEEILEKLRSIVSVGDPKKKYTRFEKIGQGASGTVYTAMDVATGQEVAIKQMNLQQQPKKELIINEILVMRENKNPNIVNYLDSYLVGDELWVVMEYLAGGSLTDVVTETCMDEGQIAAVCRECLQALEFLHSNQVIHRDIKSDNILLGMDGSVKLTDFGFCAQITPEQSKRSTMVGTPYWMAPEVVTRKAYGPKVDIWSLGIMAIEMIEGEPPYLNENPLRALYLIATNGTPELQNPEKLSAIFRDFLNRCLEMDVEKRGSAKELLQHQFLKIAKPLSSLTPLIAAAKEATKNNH

What is called IC50 is the point on the concentration scale where inhibition reaches its midpoint. `CC(CO)N(Cc1cc(F)cc2[nH]ncc12)c1nccc(Nc2cc(C3CC3)[nH]n2)n1` (stereo not given) returned a 50% inhibitory concentration (IC50) in assay [1] of 70.8 nM.
`C[C@H](Nc1nccc(Nc2cc(C3CCC3)[nH]n2)n1)c1ccc2[nH]ccc2c1`: half-maximal inhibition in assay [1] (IC50) required 133 nM. Against the preceding molecule, the IC50 is about 1.9-fold higher.
By Ki is commonly meant a measure of affinity in units of concentration, obtained from inhibition or displacement. In assay [1], `C[C@H](Nc1nccc(Nc2cc(C3CC3(F)F)[nH]n2)n1)c1ccc2[nH]cnc2c1` (stereo not given in full) came in with an IC50 of 244 nM. In addition, in assay [2], the Ki was found to be 5.13 nM.
Regarding `COCCN(Cc1cc(F)cc2[nH]ncc12)c1nccc(Nc2cc(C3CC3)[nH]n2)n1`, the IC50 in assay [1] was 64.1 nM.

These data come from ChEMBL document CHEMBL2384931, “PAK1: A Therapeutic Target for Cancer Treatment” (ACS Med Chem Lett, 2013).
